Assay results: paper PMC3842960, “Natural Stilbenoids Isolated from Grapevine Exhibiting Inhibitory Effects against HIV-1 Integrase and Eukaryote MOS1 Transposase In Vitro Activities” (PLoS ONE, 2013)
pIC50: −log10 of the molar value.

Key:
[1] = test system: VSV-G pseudotyped lentiviruses; type: cell-based
[2] = test system: VSV-G pseudotyped lentiviruses; type: cell-based; conditions: 10 µM
MOS1 = target: T1, MOS1 (Drosophila mauritiana, UniProt Q7JQ07); test: MOS1 in vitro activities, overall statements of the discussion; type: biochemical, D. mauritiana; conditions: in vitro assays of MOS1 activities; discussion
T1 construct: involving the full-length Mos1 transposase (MOS1) was recently solved; made in house
Procedure: (§1) In vitro transposition reactions were performed using pBC-3T3 as both the donor DNA and the target, as previously described. Briefly, the basic transposition reaction mixtures contained 10 mM Tris-HCl (pH 9), 50 mM NaCl, 20 mM MgCl2, 0.5 mM EDTA, 5% glycerol, 5 ng/ml BSA, 600 ng pBC-3T3, and 80 nM purified MBP-MOS1 (added last) in a volume of 20 µl. Inhibitors (25 or 10 µM, as specified) or DMSO (2%) were added to the reaction mixtures before the transposase. The reactions were allowed to proceed for 30 min at 30°C. After phenol-chloroform extraction and ethanol precipitation, 10% of the reaction mixture was transformed in electro-competent JM109 E. coli (2 mm cuvette, 1.5 kV in a MicroPulser™BioRad). Appropriate dilutions of each reaction mixture were plated on LB-tetracycline (12.5 µg/ml) agar and LB-chloramphenicol (80 µg/ml) agar to score the transposition rate. The transposition rate was the number of Tet^R colonies divided by the number of Chloram^R plus Tet^R colonies. Each condition was done at least three times in independent experiments.
(§2) Basic excision reaction mixtures contained 10 mM Tris-HCl (pH 9), 50 mM NaCl, 20 mM MgCl2, 0.5 mM EDTA, 0.5 mM DTT, 100 ng BSA, 600 ng of super-coiled pBC-3T3, and 80 nM MBP-MOS1 (added last) in a volume of 20 µl. Molecules (25 or 10 µM, as specified) or DMSO (2%) were added to the reaction mixtures before the transposase. The reactions were allowed to proceed at 30°C for 30 min before 2 µl of stop solution (loading buffer) were added. The reaction mixtures were then incubated at 65°C for 10 min. Each reaction was analysed by overnight electrophoresis at 2.7 V/cm on a TAE-buffered 1% agarose gel with ethidium bromide (0.3 mg/ml). After electrophoresis, the gel was photographed on a transilluminator. ImageGauge 4.22 software (Fujifilm) was used to quantify the bands. Each condition was tested at least twice.
These assays were performed using pre-cleaved 3′ITRs (PC-ITR), i.e. ITRs in the configuration expected after excision. Double-strand ITRs were obtained by annealing equimolar amounts of 70-NTS-PN (5′[…]3′) and 70-TS-PC (5′[…]3′) single-strand oligonucleotides. Prior to annealing, the transferred strand (70-TS-PC) was 5′-end labelled using T4 polynucleotide kinase (Promega) and γ-^32P-ATP following the manufacturer's instructions. Oligonucleotides were provided by Eurofins MWG Biotech (Germany) or Eurogentec (Belgium). Reaction mixtures containing 10 mM Tris-HCl (pH 9), 50 mM NaCl, 1 mM DTT, 5% glycerol, 100 ng BSA, 100 nM of labelled PC-ITR and 100 nM MBP-MOS1 in a final volume of 20 µl were incubated at 30°C for 30 min. The pBC plasmid (which contained the cat gene, a hot-spot for Mos1 insertion) was then added to 30 ng/µL along with 5 mM MgCl2. Molecules (25 or 10 µM, as specified) or DMSO (2%) were added to the reaction mixtures along with the target DNA to estimate their effect on integration. Reactions were carried out for 3 hours at 30°C. 0.1 mg/ml proteinase K and 0.1% SDS were added to stop the reaction. DNA products were purified by phenol-chloroform extraction and ethanol precipitated using standard techniques. DNA products were resuspended in DNA loading buffer, then separated onto a 1% agarose gel in 1X TAE (Tris Acetate EDTA) buffer. The gel was dried onto a nitrocellulose membrane (Hybond N+, GE Healthcare), scanned using a Storm, and analysed with ImageQuant software. Signals were quantified using ImageQuant software. Efficiency of integration was calculated as the intensity of the integration signal divided by the intensity of free target signal plus integration signal. Each condition was tested at least twice.
All molecules were also tested in in vitro assays reproducing integration and excision reactions catalysed by MOS1. […] In contrast, E-resveratrol and E-ε-viniferin glucoside, which act more specifically on HIV-1 3′processing reaction, and E-piceid and E-pterostilbene, which is more efficient on the integration reaction, were not active on MOS1.

HIV-1 IN [3] = target: T2, HIV-1 IN (Human immunodeficiency virus type 1 group M subtype B, UniProt P04585); test: HIV-1 IN in vitro concerted integration assay (processed or unprocessed donor DNA); conditions: for differential effect between reactions: strand transfer / processed donor versus 3′processing / unprocessed donor: comparison of concerted integration and 3′processing results; for inhibitory efficiency compared with raltegravir: concerted integration; for inhibitory efficiency compared with raltegravir / inhibition of concerted integration from processed and unprocessed donor: increasing concentrations
HIV-1 IN [4] = target: T2, HIV-1 IN; test: HIV-1 IN 3′processing assay; type: biochemical; conditions: 600 nM IN; increasing concentrations
Mos1 transposase (MOS1) [5] = target: T3, Mos1 transposase (MOS1) (Drosophila mauritiana, UniProt Q7JQ07); test: MOS1 in vitro transposition assay (genetic hop experiment); type: biochemical, D. mauritiana
T3 construct: involving the full-length Mos1 transposase (MOS1) was recently solved; made in house
Procedure: The wild type Mos1 transposase (MOS1: 345 amino acids) was produced and purified as a fusion protein linked to the maltose-binding protein by using the pMal-c2 system (New England Biolabs) and following the manufacturer's instructions.
as §1
To identify the natural stilbenes active on MOS1, the 17 molecules were tested using an in vitro genetic “hop” experiment, which is the most sensitive test available as yet. Purified MOS1 was incubated with the pBC-3T3 plasmid, which was used both as the transposon donor and the target plasmid. This plasmid contains the pBR322 tetracycline resistance gene (without promoter) framed by two Mos1 ITRs. This reconstitutes a pseudo-Mos1 element named 3T3. We took advantage of the fact that the cat gene (present in the pBC backbone) is a hotspot for Mos1 integration. […] Transposition events were recovered by bacterial transformation with selection for tetracycline resistance, as a gain-of-function landmark for transposition. […] Controls correspond to assays performed without molecule but with DMSO, which is routinely used as the solvent. […] To confirm the efficiency of the six molecules, they were similarly assayed at 10 µM ( figure 6B ). Since they appeared to be still active at 10 µM, they were further characterized in order to identify the targeted step of the transposition cycle.

Mos1 transposase (MOS1) [6] = target: T3, Mos1 transposase (MOS1); test: MOS1 in vitro excision assay; type: biochemical, D. mauritiana
Procedure: as §2
The ability of the selected molecules to inhibit excision was tested in vitro using the pBC-3T3 plasmid as the transposon donor. MOS1 triggers the excision of the pseudo-Mos1 from the plasmid producing two linear DNA fragments, the transposon and the plasmid backbone, together with intermediate products (open circle plasmids which contained single strand nicks and linear plasmids which contained a double strand nick at one ITR). After excision, the transposon could be reintegrated, making it difficult to detect in electrophoresis. The activity of the molecules was measured by quantifying the plasmid backbone, the end product of the reaction. The assays were performed with final concentrations of 25 and 10 µM molecules. Controls correspond to assays performed without molecule but with DMSO. […] Reactions were performed at least twice for each selected molecules (leachianol G, leachianol F, quadrangularin A, hopeaphenol, vitisin B and pallidol) and the excision activity is reported in figure 7B . […] The six selected molecules were then tested for the integration step of Mos1 transposition.

topoisomerase II = test system: topoisomerase II; parameters: method as in PMID 16508191; conditions: cited from earlier work

T3 sequence (Q7JQ07 whole entry): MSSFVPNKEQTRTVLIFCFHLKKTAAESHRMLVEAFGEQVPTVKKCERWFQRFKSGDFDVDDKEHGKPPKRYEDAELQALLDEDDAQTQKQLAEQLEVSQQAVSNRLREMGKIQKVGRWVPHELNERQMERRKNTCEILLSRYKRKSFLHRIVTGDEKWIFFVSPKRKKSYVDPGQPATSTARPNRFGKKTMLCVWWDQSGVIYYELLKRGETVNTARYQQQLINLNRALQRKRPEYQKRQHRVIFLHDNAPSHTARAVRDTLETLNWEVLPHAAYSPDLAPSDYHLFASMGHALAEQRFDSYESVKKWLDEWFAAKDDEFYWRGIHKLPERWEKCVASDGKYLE
T1 sequence (Q7JQ07 whole entry): as above

Row | SMILES | integration inhibition evaluated by GFP fluorescence [1] | 1LTR circles amount [2] | 2LTR circles DNA [2] | integrated DNA amount [2] | total viral DNA amount [2] | activity on MOS1 (MOS1) | differential effect between reactions: strand transfer / processed donor versus 3′processing / unprocessed donor (HIV-1 IN [3]) | inhibitory efficiency compared with raltegravir (HIV-1 IN [3]) | inhibition of concerted integration from processed and unprocessed donor (HIV-1 IN [3]) | inhibitory effect on 3′processing (HIV-1 IN [4]) | activity against MOS1 in transposition assay (Mos1 transposase (MOS1) [5]; 10 µM) | inhibition of the whole MOS1 transposition activity (Mos1 transposase (MOS1) [5]; 25 µM, DMSO control as reference) | inhibition at 25 µM (Mos1 transposase (MOS1) [6]; 25 µM, DMSO control as reference, read-out: inhibition of in vitro excision reaction) | pIC50 (Mos1 transposase (MOS1) [6]; concentration range, sigmoid dose-response fit) | topoisomerase II inhibition (topoisomerase II) | inhibition of concerted integration (HIV-1 IN [3]; 50 µM, both activities (processed and unprocessed donor))
1 | COc1cc(/C=C/c2ccc(O)cc2)cc(OC)c1 [E-pterostilbene] | found to induce an integration inhibition | no decrease | non significant increase | slight but reproducible decrease | No significant change | not active | more active on strand transfer reaction than | inhibitory efficiencies close to raltegravir | inhibited both activities |  |  |  |  |  |  | 
2 | Oc1ccc(C(O)C2c3cc(O)cc(O)c3[C@H](c3ccc(O)cc3)[C@H]2c2cc(O)cc(O)c2)cc1 (some centres unmarked) [leachianol F] |  |  |  |  |  | also active against MOS1 activities | active on both reactions | inhibitory efficiencies close to raltegravir | inhibited both activities | showed an inhibitory effect | still active | over 50% | > 50% | 4.52 | potent topoisomerase II inhibitors | 30–60%
